What all share (format): in vivo
The subject of one assay is Colletotricum lagenarium. In words: Cucumber Anthracnose (COLLLA) whole-plant disease control test. Conditions: Cucumis sativus, foliar; 200 ppm applied to foliage of cucumber; inoculated one day after treatment; read-out: COLLLA disease control.
The next assay relates to Erysiphe cichoracaerum. As to the kind of experiment: Cucumber Powdery Mildew (ERYSCI) whole-plant disease control test. Conditions: Erysiphe, foliar; 200 ppm applied to foliage of cucumber; inoculated one day after treatment; read-out: ERYSCI disease control.
The next assay has as its system Leptosphaeria nodorum. As to the kind of experiment: Glume Blotch of Wheat (LEPTNO) whole-plant disease control test. Conditions: Parastagonospora nodorum, foliar; for pest or weed control at 200 ppm: 200 ppm applied to foliage of wheat, inoculated one day after treatment, read-out: LEPTNO disease control; for pest or weed control at 75 ppm: 75 ppm (footnote b), wheat foliage.

The next assay relates to Phytophthora infestans. As to the kind of experiment: whole plant or invertebrate. Conditions: Phytophthora infestans, in Solanum lycopersicum, foliar, read-out: PHYTIN disease control, 200 ppm applied to foliage of tomato; inoculated one day after treatment.
Assay [1] relates to Puccinia recondita tritici. In words: Leaf Rust of Wheat (PUCCRT) whole-plant disease control test. Conditions: Puccinia recondita, foliar; for pest or weed control at 200 ppm: 200 ppm applied to foliage of wheat, inoculated one day after treatment, read-out: PUCCRT disease control; for pest or weed control at 8.3 ppm: 8.3 ppm (footnote c), wheat foliage.
Assay [2] relates to Magnaporthe grisea=Pyricularia oryzae. As to the kind of experiment: whole plant or invertebrate. Conditions: Pyricularia oryzae, foliar; for pest or weed control at 200 ppm: read-out: PYRIOR disease control, 200 ppm applied to foliage of rice, inoculated one day after treatment; for pest or weed control at 8.3 ppm: read-out: PYRIOR disease control, 8.3 ppm (footnote c), rice foliage.

For assay [3], the system named is Mycosphaerella graminicola=Septoria tritici. As to the kind of experiment: Speckled Leaf Blotch of Wheat (SEPTTR) whole-plant disease control test. Conditions: Mycosphaerella, foliar, 75 ppm applied to foliage of wheat; read-out: SEPTTR disease control.

Here are results for 30 compounds from patent US7531482B2, “Thieno-pyrimidine compounds having fungicidal activity” (Dow AgroSciences LLC, priority 2005, dated 2009).

As for `FC(F)(F)c1ccc(Oc2ccc(CCNc3ncnc4scc(Cl)c34)cc2)nc1` [Compound 1, 5-(Chlorothieno[2,3-d]pyrimidin-4-yl)-{2-[4-(5-trifluoromethylpyridin-2-yloxy)phenyl]ethyl}amine], the pest or weed control at 200 ppm fell in the range of 0 to 49% in the assay with Colletotricum lagenarium; 50 to 79% with Erysiphe cichoracaerum; 50 to 79% with Leptosphaeria nodorum; 0 to 49% in the assay on Phytophthora infestans; 80 to 100% in assay [1]; 80 to 100% in assay [2]. In addition, in assay [3], the pest or weed control at 75 ppm is 50 to 79%.
Consider `CS(=O)(=O)c1ccc(Oc2ccc(CCNc3ncnc4scc(Cl)c34)cc2)nc1` [Compound 2], for which the pest or weed control at 200 ppm in the assay on Colletotricum lagenarium fell in the range of 0 to 49%; in the assay on Erysiphe cichoracaerum it was 0 to 49%; in the assay on Leptosphaeria nodorum it was 0 to 49%; with Phytophthora infestans it was 0 to 49%; in assay [1], 80 to 100%; in assay [2], 50 to 79%.
With `COC(=O)c1ccc(Oc2ccc(CCNc3ncnc4scc(Cl)c34)cc2)nc1` [Compound 20], the pest or weed control at 200 ppm in the assay with Colletotricum lagenarium fell in the range of 0 to 49%; with Erysiphe cichoracaerum, 0 to 49%; with Leptosphaeria nodorum, 0 to 49%; with Phytophthora infestans, 0 to 49%; in assay [1], 80 to 100%; in assay [2], 0 to 49%.
Turning to `NC(=O)c1cccc(Oc2ccc(CCNc3ncnc4scc(Cl)c34)cc2)n1` [Compound 82], the pest or weed control at 75 ppm (with Leptosphaeria nodorum; in assay [3]) was 50 to 79% each time. The pest or weed control at 8.3 ppm in assay [1] and in assay [2] was 80 to 100% each time.
Take `O=[N+]([O-])c1cccc(Oc2ccc(CCNc3ncnc4scc(Cl)c34)cc2)n1` [Compound 83]: the pest or weed control at 75 ppm (in the assay with Leptosphaeria nodorum; in assay [3]) was 50 to 79% throughout. The pest or weed control at 8.3 ppm in assay [1] and in assay [2] was 80 to 100% in each case.
Turning to `COc1cccc(Oc2ccc(CCNc3ncnc4scc(Cl)c34)cc2)n1` [Compound 84, (5-Chlorothieno[2,3-d]pyrimidin-4-yl)-{2-[4-(6-methoxypyridin-2-yloxy)phenyl]ethyl}amine], the pest or weed control at 75 ppm (in the assay on Leptosphaeria nodorum; in assay [3]) was 50 to 79% throughout. Moreover, the pest or weed control at 8.3 ppm in assay [1] and in assay [2] was 80 to 100% throughout.
On to `O=c1ncn(-c2cccc(Oc3ccc(CCNc4ncnc5scc(Cl)c45)cc3)n2)[nH]1` [Compound 90], for which the pest or weed control at 75 ppm with Leptosphaeria nodorum lay within 0 to 49%; in assay [3], 50 to 79%. For the same compound, the pest or weed control at 8.3 ppm in assay [1] lay within 0 to 49%; in assay [2], 50 to 79%.
With `C[S+]([O-])c1cc(Cl)nc(Oc2ccc(CCNc3ncnc4scc(Cl)c34)cc2)c1` (centres unmarked) [Compound 92], the pest or weed control at 75 ppm in the assay with Leptosphaeria nodorum is 0 to 49%; in assay [3] it was 50 to 79%. The pest or weed control at 8.3 ppm in assay [1] and in assay [2] was 80 to 100% throughout.
`CSc1cc(C(F)(F)F)cc(Oc2ccc(CCNc3ncnc4scc(Cl)c34)cc2)n1` [Compound 93]: the results for the pest or weed control at 75 ppm (with Leptosphaeria nodorum; in assay [3]) were 0 to 49% and 50 to 79%, respectively. For the same compound, the pest or weed control at 8.3 ppm in assay [1] and in assay [2] was 80 to 100% each time.
On to `CC(C)(C)c1noc(-c2cccc(Oc3ccc(CCNc4ncnc5scc(Cl)c45)cc3)n2)n1` [Compound 96], for which the pest or weed control at 75 ppm (with Leptosphaeria nodorum; in assay [3]) was 50 to 79% each time. Further, the pest or weed control at 8.3 ppm fell in the range of 80 to 100% in assay [1] and 50 to 79% in assay [2].
With `O=C(O)c1ccc(C(F)(F)F)nc1Oc1ccc(CCNc2ncnc3scc(Cl)c23)cc1` [Compound 98], the pest or weed control at 75 ppm with Leptosphaeria nodorum lay in the range of 0 to 49%; in assay [3], 50 to 79%. For the same compound, the pest or weed control at 8.3 ppm in assay [1] and in assay [2] was 0 to 49% in each case.
`CC(=O)c1cccc(Oc2ccc(CCNc3ncnc4scc(Cl)c34)cc2)n1` [Compound 100] returned a pest or weed control at 75 ppm in the assay with Leptosphaeria nodorum of 0 to 49%. For the same compound, the pest or weed control at 8.3 ppm in assay [1] and in assay [2] was 80 to 100% each time.
With `CC(C)(C)C(=O)NNc1cccc(Oc2ccc(CCNc3ncnc4scc(Cl)c34)cc2)n1` [Compound 102, 2,2-Dimethylpropionic acid N′-(6-{4-[2-(5-chlorothieno[2,3-d]pyrimidin-4-ylamino)ethyl]phenoxy}pyridine-2-yl)-hydrazide], the pest or weed control at 75 ppm (in the assay on Leptosphaeria nodorum; in assay [3]) was 0 to 49% throughout. Moreover, the pest or weed control at 8.3 ppm fell in the range of 0 to 49% in assay [1] and 50 to 79% in assay [2].
`CC(C)(C)c1nnc(Oc2ccc(CCNc3ncnc4scc(Cl)c34)cc2)s1` [Compound 109]: the pest or weed control at 75 ppm (in the assay with Leptosphaeria nodorum; in assay [3]) was 50 to 79% in each case. Moreover, the pest or weed control at 8.3 ppm in assay [1] and in assay [2] was 80 to 100% each time.
Take `FC(F)(F)COc1cccc(Oc2ccc(CCNc3ncnc4scc(Cl)c34)cc2)n1` [Compound 111]: the results for the pest or weed control at 75 ppm (in the assay on Leptosphaeria nodorum; in assay [3]) were 0 to 49% and 50 to 79%, respectively. Further, the pest or weed control at 8.3 ppm in assay [1] fell in the range of 50 to 79%; in assay [2], 80 to 100%.
On to `COc1cnc(C(F)(F)F)c(F)c1Oc1ccc(CCNc2ncnc3scc(Cl)c23)cc1` [Compound 113], for which the pest or weed control at 75 ppm (with Leptosphaeria nodorum; in assay [3]) was 0 to 49% in each case. The pest or weed control at 8.3 ppm in assay [1] and in assay [2] was 80 to 100% throughout.
On to `Clc1csc2ncnc(NCCc3ccc(Oc4snnc4-c4ccccc4)cc3)c12` [Compound 115], for which the pest or weed control at 75 ppm (in the assay with Leptosphaeria nodorum; in assay [3]) was 50 to 79% each time. In addition, the values for the pest or weed control at 8.3 ppm in assay [1] and in assay [2] were 80 to 100% and 50 to 79%, respectively.
As to `COc1ccc([N+](=O)[O-])c(Oc2ccc(CCNc3ncnc4scc(Cl)c34)cc2)n1` [Compound 116], the pest or weed control at 75 ppm (with Leptosphaeria nodorum; in assay [3]) was 0 to 49% each time. Further, the values for the pest or weed control at 8.3 ppm in assay [1] and in assay [2] were 80 to 100% and 0 to 49%, respectively.
As for `CC(C)Cc1nnc(Oc2ccc(CCNc3ncnc4scc(Cl)c34)cc2)s1` [Compound 117], the pest or weed control at 75 ppm (in the assay with Leptosphaeria nodorum; in assay [3]) was 0 to 49% each time. In addition, the pest or weed control at 8.3 ppm in assay [1] and in assay [2] was 80 to 100% in each case.
Consider `Clc1csc2ncnc(NCCc3ccc(Oc4nnc(-c5ccncc5)s4)cc3)c12` [Compound 118], for which the pest or weed control at 75 ppm (in the assay on Leptosphaeria nodorum; in assay [3]) was 0 to 49% in each case. Also, the pest or weed control at 8.3 ppm in assay [1] and in assay [2] was 80 to 100% throughout.
Consider `Clc1csc2ncnc(NCCc3ccc(Oc4nnc(COc5ccccc5)s4)cc3)c12` [Compound 119], for which the pest or weed control at 75 ppm (with Leptosphaeria nodorum; in assay [3]) was 0 to 49% each time. The pest or weed control at 8.3 ppm in assay [1] and in assay [2] was 80 to 100% in each case.
Turning to `O=Cc1sc(Oc2ccc(CCNc3ncnc4scc(Cl)c34)cc2)nc1Cl` [Compound 121], the pest or weed control at 75 ppm (with Leptosphaeria nodorum; in assay [3]) was 0 to 49% each time. For the same compound, the pest or weed control at 8.3 ppm in assay [1] and in assay [2] was 80 to 100% in each case.
Regarding `FC(F)(F)c1cnccc1Oc1ccc(CCNc2ncnc3scc(Cl)c23)cc1` [Compound 126], the pest or weed control at 75 ppm is 50 to 79% in the assay on Leptosphaeria nodorum and 80 to 100% in assay [3]. This compound also returned a pest or weed control at 8.3 ppm in assay [1] of 80 to 100%.
`FC(F)(F)COc1ccnc(Oc2ccc(CCNc3ncnc4scc(Cl)c34)cc2)c1` [Compound 127]: the pest or weed control at 75 ppm fell in the range of 80 to 100% in the assay with Leptosphaeria nodorum and 50 to 79% in assay [3]. The same compound returned a pest or weed control at 8.3 ppm in assay [1] of 80 to 100%.
Take `Nc1c(F)c(F)nc(Oc2ccc(CCNc3ncnc4scc(Cl)c34)cc2)c1F` [Compound 128]: the pest or weed control at 8.3 ppm in assay [1] and in assay [2] was 80 to 100% in each case.
In the case of `Fc1cc(F)c(Oc2ccc(CCNc3ncnc4scc(Cl)c34)cc2)nc1F` [Compound 129], the pest or weed control at 75 ppm lay within 50 to 79% in the assay on Leptosphaeria nodorum and 80 to 100% in assay [3]. The pest or weed control at 200 ppm in assay [1] and in assay [2] was 80 to 100% throughout.
As to `N#Cc1c(Cl)cncc1Oc1cccc(CCNc2ncnc3scc(Cl)c23)c1` [Compound 130], the pest or weed control at 200 ppm in the assay with Colletotricum lagenarium is 0 to 49%; in the assay with Erysiphe cichoracaerum, 0 to 49%; in the assay on Phytophthora infestans it was 80 to 100%; in assay [1], 80 to 100%; in assay [2] it was 80 to 100%. Besides, the pest or weed control at 75 ppm in assay [3] fell in the range of 0 to 49%.
Regarding `Fc1cnc(C(F)(F)F)c(F)c1Oc1cccc(CCNc2ncnc3scc(Cl)c23)c1` [Compound 131], in assay [1], the pest or weed control at 8.3 ppm was 50 to 79%.
Consider `Fc1ccc(F)c(Oc2ccc(CCNc3ncnc4scc(Cl)c34)cc2)n1` [Compound 132], for which the pest or weed control at 8.3 ppm in assay [1] and in assay [2] was 80 to 100% each time.
For `N#Cc1ccc(C(F)(F)F)nc1Oc1ccc(CCNc2ncnc3scc(Cl)c23)cc1` [Compound 133], the pest or weed control at 8.3 ppm in assay [1] is 0 to 49%.
